US20240208994A1, “PLASMA KALLIKREIN INHIBITORS” (Merck Sharp & Dohme LLC, priority 2021, published 2024)

Tests used:
[1] = target: T1, Human plasma kallikrein (Homo sapiens, UniProt P03952); assay: Plasma Kallikrein Assay; format: biochemical; conditions: purified Human plasma kallikrein 0.5 nM, substrate Acetyl-K-P-R-AFC, HEPES pH 7.4, fluorescence 405 Ex/510 Em; read-out: PKal IC50
T1 construct: yields a heavy chain (371 amino acids) and a light chain (248 amino acids); purchased Enzyme Research Laboratories
T1 sequence (P03952 391-638 limits assumed): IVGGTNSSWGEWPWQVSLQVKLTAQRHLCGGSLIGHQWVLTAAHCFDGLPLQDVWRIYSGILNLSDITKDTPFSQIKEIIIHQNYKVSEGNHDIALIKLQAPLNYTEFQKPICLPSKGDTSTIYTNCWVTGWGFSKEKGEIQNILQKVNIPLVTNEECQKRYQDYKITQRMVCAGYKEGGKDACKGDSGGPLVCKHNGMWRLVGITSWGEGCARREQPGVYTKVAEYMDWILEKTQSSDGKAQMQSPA
T1 sequence (P03952 20-390 partner limits assumed): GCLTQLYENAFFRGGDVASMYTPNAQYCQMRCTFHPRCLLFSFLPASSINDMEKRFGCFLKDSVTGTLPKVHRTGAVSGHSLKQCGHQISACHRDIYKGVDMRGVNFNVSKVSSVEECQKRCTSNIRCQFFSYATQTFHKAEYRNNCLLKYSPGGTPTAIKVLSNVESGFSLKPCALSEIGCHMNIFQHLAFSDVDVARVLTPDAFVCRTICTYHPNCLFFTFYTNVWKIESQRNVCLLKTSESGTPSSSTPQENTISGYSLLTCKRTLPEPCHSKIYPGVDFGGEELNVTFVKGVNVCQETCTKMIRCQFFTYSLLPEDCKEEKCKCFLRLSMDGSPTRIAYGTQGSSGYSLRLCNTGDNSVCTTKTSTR
How it was run: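 Purified human plasma kallikrein (0.5 nM) with fluorogenic Acetyl-K-P-R-AFC at ≤0.2 Km in pH 7.4 HEPES with NaCl, CaCl2 and PEG 8000, after enzyme–inhibitor equilibration. Fluorescence read at 405/510 nm under linear conditions. IC50 from four-parameter fit; Ki by Cheng-Prusoff.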

[2] = target: human factor XIa (Homo sapiens, UniProt P03951); assay: Factor XIa Assay; format: biochemical; conditions: human factor XIa 0.04 nM, 30 min pre-incubation at 25° C., substrate GPR-AFC, pH 7.4, 60 min incubation; read-out: FXIa IC50
human factor XIa, sequence (P03951 388-625 limits assumed): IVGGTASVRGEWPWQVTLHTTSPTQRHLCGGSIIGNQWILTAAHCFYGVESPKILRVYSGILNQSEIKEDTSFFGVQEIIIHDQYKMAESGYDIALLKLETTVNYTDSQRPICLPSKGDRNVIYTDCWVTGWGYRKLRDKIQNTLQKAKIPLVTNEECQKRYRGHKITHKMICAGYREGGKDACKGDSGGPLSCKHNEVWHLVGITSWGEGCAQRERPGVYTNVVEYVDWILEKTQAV
human factor XIa, sequence (P03951 19-387 partner limits assumed): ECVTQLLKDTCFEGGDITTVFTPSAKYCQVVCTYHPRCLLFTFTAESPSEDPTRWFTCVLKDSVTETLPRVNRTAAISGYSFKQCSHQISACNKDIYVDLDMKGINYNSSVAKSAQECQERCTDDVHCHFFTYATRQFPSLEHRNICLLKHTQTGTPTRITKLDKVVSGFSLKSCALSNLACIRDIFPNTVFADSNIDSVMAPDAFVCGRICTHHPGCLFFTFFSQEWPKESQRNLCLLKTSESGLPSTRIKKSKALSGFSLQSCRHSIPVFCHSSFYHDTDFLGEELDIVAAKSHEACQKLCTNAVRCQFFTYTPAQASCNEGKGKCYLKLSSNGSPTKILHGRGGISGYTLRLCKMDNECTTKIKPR

Row | Structure (SMILES) | IC50 [1] | IC50 [2]
1 | N#Cc1ccc(-c2cc(N)n(CC(=O)N3CC[C@@]4(C3)OC(=O)Nc3ccc(Cl)c(F)c34)n2)cc1 [Example 63, (R)-4-(5-Amino-1-(2-(6-chloro-5-fluoro-2-oxo-1,2-dihydrospiro[benzo[d][1,3]oxazine-4,3′-pyrrolidin]-l′-xl)-2-oxoethyl)-1H-pyrazol-3-yl)benzonitrile] | 13.9 nM | 613 nM
2 | Nc1cc(-c2cccc(F)c2)nn1CC(=O)N1CC[C@@]2(C1)OC(=O)Nc1ccc(Cl)c(F)c12 [Example 64, (R)-1′-(2-(5-Amino-3-(3-fluorophenyl)-1H-pyrazol-1-yl)acetyl)-6-chloro-5-fluorospiro[benzo[d] [1,3]oxazine-4,3′-pyrrolidin]-2(1H)-one] | 17 nM | 556 nM
3 | Nc1cc(-c2ccc(Cl)cc2)nn1CC(=O)N1CC[C@@]2(C1)OC(=O)Nc1ccc(Cl)c(F)c12 [Example 65, (R)-1′-(2-(5-Amino-3-(4-chlorophenyl)-1H-pyrazol-1-yl)acetyl)-6-chloro-5-fluorospiro[benzo[d] [1,3]oxazine-4,3′-pyrrolidin]-2(1H)-one] | 21.9 nM | 1560 nM
4 | Nc1cc(-c2ccc(OC(F)F)cc2)nn1CC(=O)N1CC[C@@]2(C1)OC(=O)Nc1ccc(Cl)c(F)c12 [Example 66, (R)-1′-(2-(5-Amino-3-(4-(difluoromethoxy)pheny1)-1H-pyrazol-1-yl)acetyl)-6-chloro-5-fluorospiro[benzo[d] [1,3]oxazine-4,3′-pyrrolidin]-2(1H)-one] | 10.3 nM | 640 nM
5 | N#Cc1cccc(-c2cc(N)n(CC(=O)N3CC[C@@]4(C3)OC(=O)Nc3ccc(Cl)c(F)c34)n2)c1 [Example 67, (R)-3-(5-Amino-1-(2-(6-chloro-5-fluoro-2-oxo-1,2-dihydrospiro[benzo[d] [1,3]oxazine-4,3'-pyrrolidin]-1'-y1)-2-oxoethyl)-1H-pyrazol-3-y1)benzonitrile] | 12 nM | 433 nM
